Where two headings read alike, the source gives them in different places.
Experiments:
Type in all cases: in vivo
[1] = system: sicklepod (Cassia obtusifolia, CASOB); experiment: Post-emerge test, greenhouse herbicide activity screening; details: post-emerge; for phytotoxicity rating CASOB: 14 days after application, rating scale 0-100
In short: (§1)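 Compounds in acetone were track-sprayed at 15–1000 g ai/ha: pre-emergence onto soil sown the previous day, then top-watered to incorporate and later bottom-watered; post-emergence onto 2–3 leaf plants with 0.25% v/v surfactant, bottom-watered only. Ratings on a 0–100 phytotoxicity scale were taken at day 14.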

[2] = system: large crabgrass (Digitaria sanguinalis, DIGSA); experiment: as above; details: post-emerge; for phytotoxicity rating DIGSA: 14 days after application, rating scale 0-100
In short: as §1

[3] = system: green foxtail (Setaria viridis, SETVI); experiment: as above; details: post-emerge; for phytotoxicity rating SETVI: 14 days after application, rating scale 0-100
In short: as §1

[4] = system: johnsongrass (Sorghum halepense, SORHA); experiment: as above; details: post-emerge; for phytotoxicity rating SORHA: 14 days after application, rating scale 0-100
In short: as §1

[5] = system: lambsquarters (Chenopodium album, CHEAL); experiment: as above; details: post-emerge; for phytotoxicity rating CHEAL: 14 days after application, rating scale 0-100
In short: as §1

[6] = system: redroot pigweed (Amaranthus retroflexus, AMARE); experiment: Pre-emerge test, greenhouse herbicide activity screening; details: Amaranthus retroflexus, pre-emergence, 336 h, read-out: Pre-emerge Herbicidal Activity AMARE
In short: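 Rating: 0–100 visual injury, 14 DAA. Application: acetone, 187 l/ha, 15–1000 g ai/ha, flat-fan track sprayer with nozzle 40–45 cm above soil or canopy. Post-emerge runs used 0.25% v/v surfactant on 2–3 leaf plants.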

[7] = system: sicklepod (Cassia obtusifolia, CASOB); experiment: as above; details: Senna obtusifolia, pre-emergence, 336 h, read-out: Pre-emerge Herbicidal Activity CASOB
In short: (§2)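 Fourteen days after spraying, crop and weed injury was graded visually from 0, no effect, to 100, every plant dead. Test substances were dissolved in acetone and applied at 15–1000 g ai/ha with a flat-fan nozzle. Application was either pre-emergence, one day after sowing, or post-emergence at the 2–3 leaf stage.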

[8] = system: large crabgrass (Digitaria sanguinalis, DIGSA); experiment: as above; details: Digitaria sanguinalis, pre-emergence, 336 h, read-out: Pre-emerge Herbicidal Activity DIGSA
In short: as §2

[9] = system: velvetleaf (Abutilon theophrasti, ABUTH); experiment: as above; details: Abutilon theophrasti, pre-emergence, 336 h, read-out: Pre-emerge Herbicidal Activity ABUTH
In short: as §2

[10] = system: green foxtail (Setaria viridis, SETVI); experiment: as above; details: Setaria viridis, pre-emergence, 336 h, read-out: Pre-emerge Herbicidal Activity SETVI
In short: as §2

[11] = system: barnyardgrass (Echinochloa crus-galli, ECHCG); experiment: as above; details: Echinochloa crus-galli, pre-emergence, 336 h, read-out: Pre-emerge Herbicidal Activity ECHCG
In short: as §2

[12] = system: johnsongrass (Sorghum halepense, SORHA); experiment: as above; details: Sorghum halepense, pre-emergence, 336 h, read-out: Pre-emerge Herbicidal Activity SORHA
In short: as §2

[13] = system: ivyleaf morningglory (Ipomoea hederacea, IPOHE); experiment: as above; details: Ipomoea, pre-emergence, 336 h, read-out: Pre-emerge Herbicidal Activity IPOHE
In short: as §2

[14] = system: lambsquarters (Chenopodium album, CHEAL); experiment: as above; details: Chenopodium album, pre-emergence, 336 h, read-out: Pre-emerge Herbicidal Activity CHEAL
In short: as §2

[15] = 63 g ai/ha, phytotoxicity rating 0-100, 14 days after application
[16] = 250 g ai/ha, phytotoxicity rating 0-100, 14 days after application
[17] = pre-emerge, rate 63 g ai/ha, phytotoxicity rating 0-100 at 14 days after application
[18] = pre-emerge, rate 250 g ai/ha, phytotoxicity rating 0-100 at 14 days after application

COc1c(Cl)cc(F)c(-n2c(=O)cc(C(F)(F)F)n(C)c2=O)c1NC(N)=O [Compound 3-26, 3-(2-aminocarbonylamino-4-chloro-6-fluoro-3-methoxyphenyl)-1-methyl-6-trifluoromethyl-2,4(1H, 3H)-pyrimidinedione]
phytotoxicity rating CASOB ([1]; 63 g ai/ha): 20 | phytotoxicity rating CASOB ([1]; 250 g ai/ha): 60 | phytotoxicity rating DIGSA ([2]; 63 g ai/ha): 0 | phytotoxicity rating DIGSA ([2]; 250 g ai/ha): 0 | phytotoxicity rating SETVI ([3]; 63 g ai/ha): 0 | phytotoxicity rating SETVI ([3]; 250 g ai/ha): 0 | phytotoxicity rating SORHA ([4]; 63 g ai/ha): 0 | phytotoxicity rating SORHA ([4]; 250 g ai/ha): 0 | phytotoxicity rating CHEAL ([5]; 63 g ai/ha): 50 | phytotoxicity rating CHEAL ([5]; 250 g ai/ha): 60 | pest or weed control at 63 g/ha [6, 15]: 80% | pest or weed control at 250 g/ha [6, 16]: 100% | pest or weed control at 63 g/ha [7, 15]: 40% | pest or weed control at 250 g/ha [7, 16]: 90% | pest or weed control at 63 g/ha [8, 15]: 0% | pest or weed control at 250 g/ha [8, 16]: 80% | pest or weed control at 63 g/ha [9, 15]: 75% | pest or weed control at 250 g/ha [9, 16]: 100% | pest or weed control at 63 g/ha [10, 15]: 0% | pest or weed control at 250 g/ha [10, 16]: 85% | pest or weed control at 63 g/ha [11, 15]: 0% | pest or weed control at 250 g/ha [11, 16]: 30% | pest or weed control at 63 g/ha [12, 15]: 0% | pest or weed control at 250 g/ha [12, 16]: 50% | pest or weed control at 63 g/ha [13, 15]: 50% | pest or weed control at 250 g/ha [13, 16]: 100% | pest or weed control at 63 g/ha [14, 15]: 80% | pest or weed control at 250 g/ha [14, 16]: 90%

CC(C)Oc1c(Cl)cc(F)c(-n2nnn(CCCF)c2=O)c1N [Compound 5-18, 1-(2-amino-4-chloro-6-fluoro-3-isopropyloxyphenyl)-4-(3fluoropropyl)-1,4-dihydro-5-oxo-5H-tetrazole]
pest or weed control at 63 g/ha ([1]; Senna obtusifolia, post-emergence, 336 h, 63 g ai/ha, phytotoxicity rating 0-100 at 14 days after application, read-out: Post-emerge Herbicidal Activity CASOB): 0% | pest or weed control at 250 g/ha ([1]; Senna obtusifolia, post-emergence, 336 h, 250 g ai/ha, phytotoxicity rating 0-100 at 14 days after application, read-out: Post-emerge Herbicidal Activity CASOB): 0% | pest or weed control at 63 g/ha ([2]; Digitaria sanguinalis, post-emergence, 336 h, 63 g ai/ha, phytotoxicity rating 0-100 at 14 days after application, read-out: Post-emerge Herbicidal Activity DIGSA): 0% | pest or weed control at 250 g/ha ([2]; Digitaria sanguinalis, post-emergence, 336 h, 250 g ai/ha, phytotoxicity rating 0-100 at 14 days after application, read-out: Post-emerge Herbicidal Activity DIGSA): 0% | pest or weed control at 63 g/ha ([3]; Setaria viridis, post-emergence, 336 h, 63 g ai/ha, phytotoxicity rating 0-100 at 14 days after application, read-out: Post-emerge Herbicidal Activity SETVI): 0% | pest or weed control at 250 g/ha ([3]; Setaria viridis, post-emergence, 336 h, 250 g ai/ha, phytotoxicity rating 0-100 at 14 days after application, read-out: Post-emerge Herbicidal Activity SETVI): 0% | pest or weed control at 63 g/ha ([4]; Sorghum halepense, post-emergence, 336 h, 63 g ai/ha, phytotoxicity rating 0-100 at 14 days after application, read-out: Post-emerge Herbicidal Activity SORHA): 0% | pest or weed control at 250 g/ha ([4]; Sorghum halepense, post-emergence, 336 h, 250 g ai/ha, phytotoxicity rating 0-100 at 14 days after application, read-out: Post-emerge Herbicidal Activity SORHA): 0% | pest or weed control at 63 g/ha ([5]; Chenopodium album, post-emergence, 336 h, 63 g ai/ha, phytotoxicity rating 0-100 at 14 days after application, read-out: Post-emerge Herbicidal Activity CHEAL): 10% | pest or weed control at 250 g/ha ([5]; Chenopodium album, post-emergence, 336 h, 250 g ai/ha, phytotoxicity rating 0-100 at 14 days after application, read-out: Post-emerge Herbicidal Activity CHEAL): 10% | pest or weed control at 63 g/ha [6, 17]: 30% | pest or weed control at 250 g/ha [6, 18]: 0% | pest or weed control at 63 g/ha [7, 17]: 0% | pest or weed control at 250 g/ha [7, 18]: 10% | pest or weed control at 63 g/ha [8, 17]: 30% | pest or weed control at 250 g/ha [8, 18]: 20% | pest or weed control at 63 g/ha [9, 17]: 40% | pest or weed control at 250 g/ha [9, 18]: 70% | pest or weed control at 63 g/ha [10, 17]: 95% | pest or weed control at 250 g/ha [10, 18]: 90% | pest or weed control at 63 g/ha [11, 17]: 0% | pest or weed control at 250 g/ha [11, 18]: 0% | pest or weed control at 63 g/ha [12, 17]: 40% | pest or weed control at 250 g/ha [12, 18]: 30% | pest or weed control at 63 g/ha [13, 17]: 0% | pest or weed control at 250 g/ha [13, 18]: 0% | pest or weed control at 63 g/ha [14, 17]: 70% | pest or weed control at 250 g/ha [14, 18]: 95%
